Data taken from US11510407B2, “Compositions and methods for reducing ice crystal formation” (X-THERMA, INC., priority 2015, dated 2022).
Entries after “also recorded” stand apart in the source; their conditions may differ.

Key:
[1] = Crystallographic x-ray diffraction (XRD) ice crystal formation assay; type: physicochemical; conditions: for reduction of necessary EG concentration while preventing ice formation (ice ring scores, FIG. 3D): 1 and 5 mg/mL compound, EG 15% to 30% (v/v)
Protocol: In order to increase the throughput of library analysis, a crystallographic x-ray diffraction (XRD) technique was used to evaluate ice crystal formation. For these experiments, the compounds named “Compound 2,” “Compound 8,” “Compound 10,” “Compound 11,” “Compound 12,” “Compound 13,” and “Compound 58” were tested. Compound 58 is similar to Compound 12, except that an arginine amino acid has been appended to the N-terminal end.
For these experiments, EG concentrations between 15% and 30% (v/v) were used. Typically, EG, DMSO, and other cryoprotectants are used during XRD sample analysis at concentrations of 35-40% (v/v) to vitrify solutions and avoid diffraction interference from ice crystals. Concentrations of 1 and 5 mg/mL of the peptoid and peptoid-peptide compounds were used. […] FIG. 3D provides ice rings scores for a variety of EG concentrations and two concentrations of Compounds 2, 8, and 12.
“IceRing1” and “IceRing2” refer to ice formation scores, which range between 0 (no ice formation) and 15 (large ice formation).
The sample containing Compound 12 at a concentration of 5 mg/mL (0.5% (w/v)) and EG at a concentration of 17.5% (v/v) in water was ice-free after flash freezing. […] In the figures, black spots and rings represent ice crystals.

[2] = Larger volume flash freeze / rewarm / −20° C. storage assay; type: physicochemical
Protocol: In order to test the usefulness of compositions of the present invention at larger scales, experiments were performed using solution volumes that are similar to volumes used for standard egg and stem cell preservation. For these experiments, two samples, one containing 22.5% EG and buffer only, and another containing 22.5% EG and 5 mg/ml (0.5% w/v) of Compound 12 and buffer, were flash frozen in liquid nitrogen. […] The rewarming of the solutions in a 37° C. water bath led to an unexpected and beneficial result. The Compound 12 solution bypassed devitrification in less than 2 seconds upon rewarming (FIG. 6B, right), whereas chunks of ice were seen floating in the control sample (FIG. 6B, left) after 20 seconds. Condensation was seen on each of the tubes because the tubes were actually still much below room temperature.

HEK 293 cell line = test: Cytotoxicity assay (MTT); type: cell-based, human
Protocol: A Tecan Genesis Robotic Workstation was used to prepare solutions in 96- and 384-well plates. Solutions contained culture media, buffers, a cryoprotectant composition of the present invention (Compound 12) or DMSO. Solutions were adjusted to the desired pH. Serial dilutions were performed to obtain solutions containing various concentrations of Compound 12 and DMSO. Control experiments were performed using only culture media.
For these experiments, cells were seeded at low density (i.e., 10% confluence), exposed to solutions containing Compound 12 or DMSO, and placed in a 37° C. incubator. The cells were allowed to grow until control cells that were treated only with empty vehicle approached 70% confluence (typically about 3 to 5 days). Assessment for compound cytotoxicity was via MTT assay.

HEK 293 cells = test: Cryopreservation assay (flash freeze-thaw, Calcein AM viability); type: cell-based, human
Protocol: Initial cryopreservation assays were performed using very simple solutions, with and without the addition of Compound 12, in order to minimize confounding outside factors. For this first set of experiments, two sample solutions were prepared. The first sample solution contained simple buffer and ethylene glycol (EG) at a concentration of 22.5% (v/v), and the second sample solution contained simple buffer, EG (22.5% (v/v)), and 5 mg/mL (0.5% (w/v)) of Compound 12.
HEK 293 cells were grown until 70% confluent, then treated with trypsin to remove adhesion proteins and yield free floating cells. Cells were counted using a hemocytometer and sample cell concentrations were adjusted to final concentrations of 10,000 cells per microliter. Cells were then compressed into tight pellets by centrifugation, and each sample was subsequently mixed with 20 μL of one of the sample solutions. Samples were then flash frozen by immersion in liquid nitrogen, followed by rewarming in a 37° C. water bath. After the freeze-thaw process, cells were suspended in a 400× volume of culture media for recovery. The positive control sample was treated with culture media at 37° C. and not subjected to the freeze-thaw process. The negative control sample was treated with culture media only during the freeze-thaw process. After recovery, cells were stained with Calcein AM for 30 minutes and cell viability was measured using a fluorescence plate reader.
A second set of experiments was performed to evaluate the cryopreservation potential of a formulation that contained 5 mg/mL of Compound 12 plus a mixture of glycols, disaccharides, and a general buffer. Post-thaw survival following vitrification in liquid nitrogen was evaluated as described above.

[3] = 160 mM ethylene glycol in MilliQ water, slow cooled, −20° C., one hour
Protocol: In this experiment, four water-based samples were prepared in capillary tubes containing MilliQ purified water. One sample contained only water, and another sample contained 160 mM ethylene glycol (EG). The other two samples each contained a peptoid polymer at 9 mM. One of the peptoid polymer samples contained the peptoid polymer called “Compound 1,” while the other sample contained the peptoid polymer called “Compound 10.” The sequences of the peptoid polymers are as follows:
After sample preparation, all samples were slow cooled and incubated at −20° C. on a Peltier cooled plate. After one hour, samples were removed and immediately photographed using a digital camera attached to a 180× Stereo Zoom microscope (FIG. 2A).

[4] = buffer + EG 22.5% (v/v) + 5 mg/mL Compound 12 with HEK 293 cells

With CCC(C)NCC(=O)N(CC(=O)N(CC(=O)N(CC(=O)N(CC(=O)N(CC(=O)N(CC(=O)N(CC(=O)N(CC(=O)N(CC(N)=O)CC(C)O)C(C)CC)C(C)CC)C(C)CC)CC(C)O)CC(C)O)CC(C)O)C(C)CC)C(C)CC (stereo not drawn) [Compound 2, Nsb-Nsb-Nsb-Nhp-Nhp-Nhp-Nsb-Nsb-Nsb-Nhp] as the compound, how does the “reduction of necessary EG concentration while preventing ice formation (ice ring scores, FIG. 3D)” value (from here on “reduction”) [1] read?
Its value is “significantly reduced necessary EG concentrations while preventing ice formation”.

Which “reduction” value [1] does the source give for CCC(C)NCC(=O)N(CC(=O)N(CC(=O)N(CC(=O)N(CC(=O)N(CC(=O)N(CC(=O)N(CC(=O)N(CC(=O)N(CC(N)=O)CC(C)O)CC(C)O)CC(C)O)C(C)CC)CC(C)O)CC(C)O)CC(C)O)CC(C)O)CC(C)O (stereo not drawn) [Compound 8, Nsb-Nhp-Nhp-Nhp-Nhp-Nhp-Nsb-Nhp-Nhp-Nhp] here?
Its value is “significantly reduced necessary EG concentrations while preventing ice formation”.

With CCC(C)NCC(=O)N(CC(=O)N(CC(=O)N(CC(=O)N(CC(=O)N(CC(=O)N(CC(=O)N(CC(=O)N(CC(=O)N(CC(N)=O)C(C)CC)C(C)CC)CC(C)O)CC(C)O)C(C)CC)C(C)CC)CC(C)O)CC(C)O)C(C)CC (stereo not drawn) [Compound 12, Nsb-Nsb-Nhp-Nhp-Nsb-Nsb-Nhp-Nhp-Nsb-Nsb] as the compound, how does the “reduction” value [1] read?
The value was “significantly reduced necessary EG concentrations while preventing ice formation”.

And the “ice formation after flash freezing (XRD, FIG. 3A)” value ([1]; Compound 12 5 mg/mL (0.5% (w/v)) + EG 17.5% (v/v) in water, stream of liquid nitrogen vapor)?
The value was “complete vitrification; also recorded: ice-free; also recorded: completely eliminate all ice formation”.

What about the “anti-icing effect in comparison to EG at the same molar concentration” value ([1]; Compound 12 5 mg/mL + EG 17.5% (v/v)) of the same compound?
Its value is 500 times.

What about the “vitrification / ice formation on flash freezing in liquid nitrogen” value ([2]; 22.5% EG + 5 mg/ml (0.5% w/v) Compound 12 + buffer, −196° C.) of the same compound?
Its value is “complete vitrification with no ice formation; also recorded: able to vitrify; also recorded: vitrified”.

And the “time to bypass devitrification upon rewarming” value ([2]; 22.5% EG + 5 mg/ml Compound 12, 37° C. water bath)?
The value was “less than 2 seconds”.

What about the “state after overnight in −20° C. freezer” value ([2]; 22.5% EG + 5 mg/ml Compound 12, 100 μL samples) of the same compound?
The value was “completely unfrozen; also recorded: remained unfrozen”.

And the “behaviour during rewarming / thawing” value ([2]; 22.5% EG + 5 mg/ml Compound 12, rewarming at 37° C.)?
The value was “active de-icer during thawing; also recorded: unfroze (within two seconds)”.

And the “toxicity (MTT assay)” value (HEK 293 cell line; HEK 293, at 0.5% w/v)?
The value was “did not show toxicity”.

What about the “toxicity (MTT assay)” value (HEK 293 cell line; HEK 293, at concentrations four times greater than 0.5% w/v) of the same compound?
The value was “did not show significant toxicity”.

And the “toxicity compared with culture media alone (MTT assay)” value (HEK 293 cell line; HEK 293, serial dilutions, 37° C., about 3 to 5 days)?
Its value is “did not significantly deviate from the that of culture media alone”.

And the “cell survival after freeze-thaw versus EG alone (FIG. 8)” value (HEK 293 cells; HEK 293, buffer + EG 22.5% (v/v) + 5 mg/mL Compound 12, liquid nitrogen, viability 12 hours post-thaw)?
Its value is “greatly improved cell survival”.

What about the “cryopreservation compared to VS2E and M22” value (HEK 293 cells; HEK 293, formulation containing 5 mg/mL Compound 12) of the same compound?
Its value is “superior cryopreservation”.

What about the “post-thaw survival of the cells” value (HEK 293 cells; HEK 293, formulation with 5 mg/mL Compound 12 plus mixture of glycols, disaccharides, general buffer, vitrified in liquid nitrogen, 16 hours post-thaw) of the same compound?
Its value is 98%.

And the “devitrification on rewarming compared to sample lacking Compound 12” value (HEK 293 cells; [4])?
The value was “bypassed much more rapidly”.

What about the “vitrification during the freezing process” value (HEK 293 cells; [4]) of the same compound?
The value was “complete vitrification without ice formation”.

With C[S+](C)[O-] [DMSO, dimethyl sulfoxide, reference compound] as the compound, how does the “concentration above which warm survival for an extended period of time was not allowed” value (HEK 293 cell line; HEK 293, MTT assay) read?
Its value is “above 0.5 % (v/v)”.

Which ice crystal formation [3] does the source give for OCCO [EG, ethylene glycol, reference compound] here?
Its ice crystal formation is “significant ice crystal formation”.

And the “ice formation after flash freezing (XRD, FIG. 3B)” value ([1]; 30% (v/v) EG alone)?
The value was “partial vitrification with the presence of cubic ice”.
